Test results taken from the CheMixHub viscosity set.

Assay: xn = mol fraction of the nth substance listed

CCOC(=O)C(C)Br (centres undefined) + CCCCCC
303.15 K, 101 kPa
Settings | viscosity [mPa·s]
x1 = 0.1996 | 0.372
x1 = 0.4039 | 0.5117
x1 = 0.5022 | 0.5973
x1 = 0.5991 | 0.7048
x1 = 0.7961 | 1.012

COC(C)=O + CCCCCC
Settings | viscosity [mPa·s]
298.15 K, 101 kPa, x1 = 0.0412 | 0.29
298.15 K, 101 kPa, x1 = 0.1497 | 0.289
298.15 K, 101 kPa, x1 = 0.2521 | 0.291
298.15 K, 101 kPa, x1 = 0.3502 | 0.295
298.15 K, 101 kPa, x1 = 0.4406 | 0.3
298.15 K, 101 kPa, x1 = 0.4839 | 0.303
298.15 K, 101 kPa, x1 = 0.5505 | 0.309
298.15 K, 101 kPa, x1 = 0.6499 | 0.32
298.15 K, 101 kPa, x1 = 0.7508 | 0.334
298.15 K, 101 kPa, x1 = 0.8488 | 0.351
298.15 K, 101 kPa, x1 = 0.941 | 0.37
298.15 K, 101.3 kPa, x1 = 0.1056 | 0.2969
298.15 K, 101.3 kPa, x1 = 0.2943 | 0.2941
298.15 K, 101.3 kPa, x1 = 0.4514 | 0.2996
298.15 K, 101.3 kPa, x1 = 0.5616 | 0.3071
298.15 K, 101.3 kPa, x1 = 0.6895 | 0.3189
298.15 K, 101.3 kPa, x1 = 0.7175 | 0.3223
298.15 K, 101.3 kPa, x1 = 0.8224 | 0.342
298.15 K, 101.3 kPa, x1 = 0.9171 | 0.365
303.15 K, 101.3 kPa, x1 = 0.1069 | 0.276
303.15 K, 101.3 kPa, x1 = 0.204 | 0.2755
303.15 K, 101.3 kPa, x1 = 0.306 | 0.2772
303.15 K, 101.3 kPa, x1 = 0.406 | 0.2809
303.15 K, 101.3 kPa, x1 = 0.4998 | 0.2857
303.15 K, 101.3 kPa, x1 = 0.602 | 0.2937
303.15 K, 101.3 kPa, x1 = 0.6984 | 0.3048
303.15 K, 101.3 kPa, x1 = 0.8014 | 0.3165
303.15 K, 101.3 kPa, x1 = 0.8998 | 0.3298
308.15 K, 101 kPa, x1 = 0.0412 | 0.272
308.15 K, 101 kPa, x1 = 0.1497 | 0.271
308.15 K, 101 kPa, x1 = 0.2521 | 0.273
308.15 K, 101 kPa, x1 = 0.3502 | 0.276
308.15 K, 101 kPa, x1 = 0.4406 | 0.28
308.15 K, 101 kPa, x1 = 0.4839 | 0.283
308.15 K, 101 kPa, x1 = 0.5505 | 0.288
308.15 K, 101 kPa, x1 = 0.6499 | 0.297
308.15 K, 101 kPa, x1 = 0.7508 | 0.309
308.15 K, 101 kPa, x1 = 0.8488 | 0.323
308.15 K, 101 kPa, x1 = 0.941 | 0.339
